Experimental data: ChEMBL document CHEMBL5143517, “Discovery and radiosensitization research of ursolic acid derivatives as SENP1 inhibitors” (Eur J Med Chem, 2022)

Experiment: Cytotoxicity against human HeLa cells assessed as inhibition of cell growth incubated for 72 hrs by CCK-8 assay
Format: toxicity, cell-based

SMILES | IC50 at 72 h [µM]
C[C@H]1[C@H](C)CC[C@]2(C(=O)OCC(=O)OC(C)(C)C)CC[C@]3(C)C(=CC[C@@H]4[C@@]5(C)CC[C@H](O)C(C)(C)[C@@H]5CC[C@]43C)[C@H]12 | > 20
C[C@H]1[C@H](C)CC[C@]2(C(=O)OCC(=O)NCCO)CC[C@]3(C)C(=CC[C@@H]4[C@@]5(C)CC[C@H](O)C(C)(C)[C@@H]5CC[C@]43C)[C@H]12 | > 20
C[C@H]1[C@H](C)CC[C@]2(C(=O)OCCN3CCN(C)CC3)CC[C@]3(C)C(=CC[C@@H]4[C@@]5(C)CC[C@H](O)C(C)(C)[C@@H]5CC[C@]43C)[C@H]12 | > 20
COC(=O)[C@]12CC[C@@H](C)[C@H](C)[C@H]1C1=CC[C@@H]3[C@@]4(C)CC[C@H](O)C(C)(C)[C@@H]4CC[C@@]3(C)[C@]1(C)CC2 [METHYL URSOLATE] | > 20
C[C@H]1[C@H](C)CC[C@]2(C(=O)NCCC(=O)O)CC[C@]3(C)C(=CC[C@@H]4[C@@]5(C)CC[C@H](O)C(C)(C)[C@@H]5CC[C@]43C)[C@H]12 | > 20
CC(=O)O[C@H]1CC[C@]2(C)[C@H]3CC=C4[C@@H]5[C@@H](C)[C@H](C)CC[C@]5(C(N)=O)CC[C@@]4(C)[C@]3(C)CC[C@H]2C1(C)C | > 20
CNC(=O)CNC(=O)[C@]12CC[C@@H](C)[C@H](C)[C@H]1C1=CC[C@@H]3[C@@]4(C)CC[C@H](OC(C)=O)C(C)(C)[C@@H]4CC[C@@]3(C)[C@]1(C)CC2 | > 20
CNC(=O)CCNC(=O)[C@]12CC[C@@H](C)[C@H](C)[C@H]1C1=CC[C@@H]3[C@@]4(C)CC[C@H](OC(C)=O)C(C)(C)[C@@H]4CC[C@@]3(C)[C@]1(C)CC2 | > 20
C[C@H]1[C@H](C)CC[C@]2(C(=O)N3CCC[C@H]3C(=O)O)CC[C@]3(C)C(=CC[C@@H]4[C@@]5(C)CC[C@H](O)C(C)(C)[C@@H]5CC[C@]43C)[C@H]12 | > 20
C[C@H]1[C@H](C)CC[C@]2(C(N)=O)CC[C@]3(C)C(=CC[C@@H]4[C@@]5(C)CC[C@H](O)C(C)(C)[C@@H]5CC[C@]43C)[C@H]12 | > 20
C[C@H]1[C@H](C)CC[C@]2(C(=O)OCCN3CCN(c4cccc(C(F)(F)F)c4)CC3)CC[C@]3(C)C(=CC[C@@H]4[C@@]5(C)CC[C@H](O)C(C)(C)[C@@H]5CC[C@]43C)[C@H]12 | > 20
C[C@H]1[C@H](C)CC[C@]2(C(=O)OCC3CCN(C(=O)OC(C)(C)C)CC3)CC[C@]3(C)C(=CC[C@@H]4[C@@]5(C)CC[C@H](O)C(C)(C)[C@@H]5CC[C@]43C)[C@H]12 | > 20
C[C@H]1[C@H](C)CC[C@]2(C(=O)N(C)CC(=O)O)CC[C@]3(C)C(=CC[C@@H]4[C@@]5(C)CC[C@H](O)C(C)(C)[C@@H]5CC[C@]43C)[C@H]12 | > 20
COC(=O)COC(=O)[C@]12CC[C@@H](C)[C@H](C)[C@H]1C1=CC[C@@H]3[C@@]4(C)CC[C@H](O)C(C)(C)[C@@H]4CC[C@@]3(C)[C@]1(C)CC2 [3BETA-HYDROXY-URS-12-EN-28-METHYL ACETOACETATE] | > 20
C[C@H]1[C@H](C)CC[C@]2(C(=O)OCCCCN3CCOCC3)CC[C@]3(C)C(=CC[C@@H]4[C@@]5(C)CC[C@H](O)C(C)(C)[C@@H]5CC[C@]43C)[C@H]12 | > 20
CNC(=O)CCNC(=O)[C@]12CC[C@@H](C)[C@H](C)[C@H]1C1=CC[C@@H]3[C@@]4(C)CC[C@H](O)C(C)(C)[C@@H]4CC[C@@]3(C)[C@]1(C)CC2 | > 20
COC(=O)CN(C)C(=O)[C@]12CC[C@@H](C)[C@H](C)[C@H]1C1=CC[C@@H]3[C@@]4(C)CC[C@H](OC(C)=O)C(C)(C)[C@@H]4CC[C@@]3(C)[C@]1(C)CC2 | > 20
C[C@H]1[C@H](C)CC[C@]2(C(=O)NCC(=O)N(CCO)CCO)CC[C@]3(C)C(=CC[C@@H]4[C@@]5(C)CC[C@H](O)C(C)(C)[C@@H]5CC[C@]43C)[C@H]12 | > 20
C[C@H]1[C@H](C)CC[C@]2(C(=O)NCC(=O)NCCO)CC[C@]3(C)C(=CC[C@@H]4[C@@]5(C)CC[C@H](O)C(C)(C)[C@@H]5CC[C@]43C)[C@H]12 | > 20
CC(=O)O[C@H]1CC[C@]2(C)[C@H]3CC=C4[C@@H]5[C@@H](C)[C@H](C)CC[C@]5(C(=O)NCCBr)CC[C@@]4(C)[C@]3(C)CC[C@H]2C1(C)C | > 20
C[C@H]1[C@H](C)CC[C@]2(C(=O)OCCN3CCNC(=O)C3)CC[C@]3(C)C(=CC[C@@H]4[C@@]5(C)CC[C@H](O)C(C)(C)[C@@H]5CC[C@]43C)[C@H]12 | > 20
COC(=O)[C@]12CC[C@@H](C)[C@H](C)[C@H]1C1=CC[C@@H]3[C@@]4(C)CC[C@H](OC=O)C(C)(C)[C@@H]4CC[C@@]3(C)[C@]1(C)CC2 | > 20
C[C@H]1[C@H](C)CC[C@]2(C(=O)OCCCCN3CCNCC3)CC[C@]3(C)C(=CC[C@@H]4[C@@]5(C)CC[C@H](O)C(C)(C)[C@@H]5CC[C@]43C)[C@H]12 | 5.7

SMILES | IC50 at 72 h [µM]
C[C@H]1[C@H](C)CC[C@]2(C(=O)OCC(=O)N(C)CCO)CC[C@]3(C)C(=CC[C@@H]4[C@@]5(C)CC[C@H](O)C(C)(C)[C@@H]5CC[C@]43C)[C@H]12 | > 20
C[C@H]1[C@H](C)CC[C@]2(C(=O)N[C@@H](C)c3ccccc3)CC[C@]3(C)C(=CC[C@@H]4[C@@]5(C)CC[C@H](O)C(C)(C)[C@@H]5CC[C@]43C)[C@H]12 | > 20
C[C@H]1[C@H](C)CC[C@]2(C(=O)NCC(=O)O)CC[C@]3(C)C(=CC[C@@H]4[C@@]5(C)CC[C@H](O)C(C)(C)[C@@H]5CC[C@]43C)[C@H]12 | > 20
COC(=O)[C@@H]1CCCN1C(=O)[C@]12CC[C@@H](C)[C@H](C)[C@H]1C1=CC[C@@H]3[C@@]4(C)CC[C@H](OC(C)=O)C(C)(C)[C@@H]4CC[C@@]3(C)[C@]1(C)CC2 | > 20
C[C@H]1[C@H](C)CC[C@]2(C(=O)OCCCCBr)CC[C@]3(C)C(=CC[C@@H]4[C@@]5(C)CC[C@H](O)C(C)(C)[C@@H]5CC[C@]43C)[C@H]12 [BROMOBUTYL-3BETA-HYDROXY-URS-12-EN-28-OATE] | > 20
CC(=O)O[C@H]1CC[C@]2(C)[C@H]3CC=C4[C@@H]5[C@@H](C)[C@H](C)CC[C@]5(C(=O)NCC(=O)O)CC[C@@]4(C)[C@]3(C)CC[C@H]2C1(C)C | > 20
CC(=O)O[C@H]1CC[C@]2(C)[C@H]3CC=C4[C@@H]5[C@@H](C)[C@H](C)CC[C@]5(C(=O)N[C@@H](C)c5ccccc5)CC[C@@]4(C)[C@]3(C)CC[C@H]2C1(C)C | > 20
C[C@H]1[C@H](C)CC[C@]2(C(=O)OCc3ccccc3)CC[C@]3(C)C(=CC[C@@H]4[C@@]5(C)CC[C@H](O)C(C)(C)[C@@H]5CC[C@]43C)[C@H]12 | > 20
C[C@H]1[C@H](C)CC[C@]2(C(=O)NCC(N)=O)CC[C@]3(C)C(=CC[C@@H]4[C@@]5(C)CC[C@H](O)C(C)(C)[C@@H]5CC[C@]43C)[C@H]12 | > 20
C[C@H]1[C@H](C)CC[C@]2(C(=O)NCC(=O)NCC(O)CO)CC[C@]3(C)C(=CC[C@@H]4[C@@]5(C)CC[C@H](O)C(C)(C)[C@@H]5CC[C@]43C)[C@H]12 (stereo partly specified) | > 20
CC(=O)O[C@H]1CC[C@]2(C)[C@H]3CC=C4[C@@H]5[C@@H](C)[C@H](C)CC[C@]5(C(=O)O)CC[C@@]4(C)[C@]3(C)CC[C@H]2C1(C)C [O-ACETYLURSOLIC ACID] | > 20
COC(=O)[C@@H]1CCCN1CCOC(=O)[C@]12CC[C@@H](C)[C@H](C)[C@H]1C1=CC[C@@H]3[C@@]4(C)CC[C@H](O)C(C)(C)[C@@H]4CC[C@@]3(C)[C@]1(C)CC2 | > 20
CC(=O)O[C@H]1CC[C@]2(C)[C@H]3CC=C4[C@@H]5[C@@H](C)[C@H](C)CC[C@]5(C(=O)NCC(N)=O)CC[C@@]4(C)[C@]3(C)CC[C@H]2C1(C)C | > 20
C[C@H]1[C@H](C)CC[C@]2(C(=O)OCCNC(=O)OC(C)(C)C)CC[C@]3(C)C(=CC[C@@H]4[C@@]5(C)CC[C@H](O)C(C)(C)[C@@H]5CC[C@]43C)[C@H]12 | > 20
C[C@H]1[C@H](C)CC[C@]2(C(=O)NCC(=O)N(C)CCO)CC[C@]3(C)C(=CC[C@@H]4[C@@]5(C)CC[C@H](O)C(C)(C)[C@@H]5CC[C@]43C)[C@H]12 | > 20
COC(=O)CNC(=O)[C@]12CC[C@@H](C)[C@H](C)[C@H]1C1=CC[C@@H]3[C@@]4(C)CC[C@H](OC(C)=O)C(C)(C)[C@@H]4CC[C@@]3(C)[C@]1(C)CC2 | > 20
C[C@H]1[C@H](C)CC[C@]2(C(=O)OCCN3CCNCC3)CC[C@]3(C)C(=CC[C@@H]4[C@@]5(C)CC[C@H](O)C(C)(C)[C@@H]5CC[C@]43C)[C@H]12 | > 20
CNC(=O)COC(=O)[C@]12CC[C@@H](C)[C@H](C)[C@H]1C1=CC[C@@H]3[C@@]4(C)CC[C@H](O)C(C)(C)[C@@H]4CC[C@@]3(C)[C@]1(C)CC2 | > 20
C[C@H]1[C@H](C)CC[C@]2(C(=O)OCCO)CC[C@]3(C)C(=CC[C@@H]4[C@@]5(C)CC[C@H](O)C(C)(C)[C@@H]5CC[C@]43C)[C@H]12 | > 20
CNC(=O)CN(C)C(=O)[C@]12CC[C@@H](C)[C@H](C)[C@H]1C1=CC[C@@H]3[C@@]4(C)CC[C@H](OC(C)=O)C(C)(C)[C@@H]4CC[C@@]3(C)[C@]1(C)CC2 | > 20
C[C@H]1[C@H](C)CC[C@]2(C(=O)OCCN3CCCCC3)CC[C@]3(C)C(=CC[C@@H]4[C@@]5(C)CC[C@H](O)C(C)(C)[C@@H]5CC[C@]43C)[C@H]12 | > 20
C[C@H]1[C@H](C)CC[C@]2(C(=O)OCCBr)CC[C@]3(C)C(=CC[C@@H]4[C@@]5(C)CC[C@H](O)C(C)(C)[C@@H]5CC[C@]43C)[C@H]12 | > 20
CNC(=O)CN(C)C(=O)[C@]12CC[C@@H](C)[C@H](C)[C@H]1C1=CC[C@@H]3[C@@]4(C)CC[C@H](O)C(C)(C)[C@@H]4CC[C@@]3(C)[C@]1(C)CC2 | > 20
